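Test compounds were applied to cells in 96-well plates for 48 hours at 5 doses. TGI denotes the concentration required for complete inhibition of growth.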
Columns and labels:
Assay in all cases: inhibition of tumour cell growth, NCI panel, 48 h
[1] = system: UACC-62 melanoma
[2] = system: COLO 205 colon
[3] = system: NCI-H226 lung
[4] = system: SK-MEL-2 melanoma
[5] = system: A498 renal
[6] = system: HCT-116 colon
[7] = system: EKVX NSCLC
[8] = system: M19-MEL melanoma
[9] = system: A549 NSCLC
[10] = system: T-47D breast

| Compound | TGI [1] [µM] | TGI [2] [µM] | TGI [3] [µM] | TGI [4] [µM] | TGI [5] [µM] | TGI [6] [µM] | TGI [7] [µM] | TGI [8] [µM] | TGI [9] [µM] | TGI [10] [µM] |
| --- | --- | --- | --- | --- | --- | --- | --- | --- | --- | --- |
| Cc1ccc(NC(=O)C(=O)Cc2cccc[n+]2[O-])cc1C | > 100 | > 100 | > 100 | > 100 | > 100 | > 100 | > 100 | > 100 | > 100 |  |
| CC(C)=CC(=O)c1c(C(=O)O)nc2ccccc2[n+]1[O-] | > 100 | > 100 | > 100 | > 100 | > 100 | > 100 | > 100 | > 100 | > 100 |  |
| O=C1C2CC[C@@H]3C(=O)C(Cl)(Cl)[C@@H]3CCC2C1(Cl)Cl (stereo not given in full) | > 100 | > 100 | > 100 | > 100 | > 100 | > 100 | > 100 |  | > 100 | > 100 |
| CC1(Cl)CC(C)(/C=C/Cl)C(Cl)CC1Cl (stereo not given) | 34.1 |  |  | 26.3 | 34 | 30 | 26.4 | 59.1 | 31.1 |  |
| C(=C\c1c2oc(-c3ccccc3)cc(-c3ccccc3)c-2c2ccccc12)/C=C1\c2ccccc2-c2c(-c3ccccc3)cc(-c3ccccc3)[o+]c21 | > 100 | > 100 | > 100 | > 100 | > 100 | > 100 | > 100 | > 100 | > 100 |  |
| CC(NNC(=O)c1ccncc1)c1ccc(Cl)cc1Cl (stereo not given) | > 100 | > 100 | > 100 | > 100 | > 100 | > 100 | > 100 |  | > 100 | > 100 |
| N#CC(NNC(=O)c1ccccc1O)c1c(O)ccc2ccccc12 (stereo not given) | 9.32 | 23.6 | 13.4 | 33.3 | > 66 | 14.8 | 51.7 | 9.62 | 26.8 | 18.7 |
| Cc1cc(C)nc(NS(=O)(=O)c2ccc(Nc3c4ccccc4nc4ccc(C(=O)Nc5ccc(S(=O)(=O)N=C(N)N)cc5)cc34)cc2)n1 | > 100 | > 100 | > 100 | > 100 | > 100 | > 100 | > 100 |  | > 100 | > 100 |
| COc1ccc2c(c1)CC[C@@H]1C2CC[C@]2(C)C(=C=CP(=O)(O)O)CCC12 (stereo not given in full) | > 100 | > 100 | > 100 | > 100 | > 100 | > 100 | > 100 |  | > 100 | > 100 |

From PubChem BioAssay (NCI)
